In the Kinase Knowledgebase extract (Sharma et al. 2016):

Experiments:
PIK3CD (Human) = PIK3CD (Human) (UniProt O00329); test: Assessment of PIK3CD Kinase Activity
PIK3CA (human) = PIK3CA (human) (UniProt P42336); test: Assessment of PIK3CA Kinase Activity
PIK3CB (Human) = PIK3CB (Human) (UniProt P42338); test: Assessment of PIK3CB Kinase Activity
PIK3CG (human) = PIK3CG (human) (UniProt P48736); test: Assessment of PIK3CG Kinase Activity
PIK3CG (human), sequence (P48736 whole entry, looked up): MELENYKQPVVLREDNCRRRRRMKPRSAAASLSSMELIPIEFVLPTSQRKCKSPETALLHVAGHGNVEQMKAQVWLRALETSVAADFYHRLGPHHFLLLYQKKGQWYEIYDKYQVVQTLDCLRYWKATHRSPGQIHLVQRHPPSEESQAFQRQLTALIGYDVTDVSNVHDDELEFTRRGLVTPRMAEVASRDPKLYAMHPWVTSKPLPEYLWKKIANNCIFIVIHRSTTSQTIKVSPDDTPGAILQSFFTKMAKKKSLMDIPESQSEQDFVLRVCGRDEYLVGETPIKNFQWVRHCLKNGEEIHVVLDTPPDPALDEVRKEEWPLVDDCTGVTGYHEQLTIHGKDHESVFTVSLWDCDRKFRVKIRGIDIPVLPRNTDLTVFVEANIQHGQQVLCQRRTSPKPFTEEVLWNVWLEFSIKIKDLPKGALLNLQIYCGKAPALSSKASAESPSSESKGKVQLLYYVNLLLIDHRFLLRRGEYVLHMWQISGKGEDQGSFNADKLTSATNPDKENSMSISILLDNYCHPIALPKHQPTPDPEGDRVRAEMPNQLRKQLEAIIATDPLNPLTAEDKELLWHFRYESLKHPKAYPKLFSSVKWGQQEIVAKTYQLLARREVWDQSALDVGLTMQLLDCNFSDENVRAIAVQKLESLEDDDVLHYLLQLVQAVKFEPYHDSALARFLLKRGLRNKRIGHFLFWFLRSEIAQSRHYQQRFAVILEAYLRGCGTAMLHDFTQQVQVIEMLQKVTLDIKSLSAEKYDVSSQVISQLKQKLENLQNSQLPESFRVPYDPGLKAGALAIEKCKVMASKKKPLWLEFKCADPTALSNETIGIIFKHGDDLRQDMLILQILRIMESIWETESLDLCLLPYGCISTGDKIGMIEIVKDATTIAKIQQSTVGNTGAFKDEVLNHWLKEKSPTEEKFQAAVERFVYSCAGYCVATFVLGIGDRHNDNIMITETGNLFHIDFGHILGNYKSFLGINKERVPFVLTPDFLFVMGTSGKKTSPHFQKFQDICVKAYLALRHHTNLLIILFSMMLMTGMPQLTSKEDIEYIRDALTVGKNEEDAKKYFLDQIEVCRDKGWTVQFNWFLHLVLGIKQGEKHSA

PIK3CD (Human), sequence (O00329 whole entry, looked up): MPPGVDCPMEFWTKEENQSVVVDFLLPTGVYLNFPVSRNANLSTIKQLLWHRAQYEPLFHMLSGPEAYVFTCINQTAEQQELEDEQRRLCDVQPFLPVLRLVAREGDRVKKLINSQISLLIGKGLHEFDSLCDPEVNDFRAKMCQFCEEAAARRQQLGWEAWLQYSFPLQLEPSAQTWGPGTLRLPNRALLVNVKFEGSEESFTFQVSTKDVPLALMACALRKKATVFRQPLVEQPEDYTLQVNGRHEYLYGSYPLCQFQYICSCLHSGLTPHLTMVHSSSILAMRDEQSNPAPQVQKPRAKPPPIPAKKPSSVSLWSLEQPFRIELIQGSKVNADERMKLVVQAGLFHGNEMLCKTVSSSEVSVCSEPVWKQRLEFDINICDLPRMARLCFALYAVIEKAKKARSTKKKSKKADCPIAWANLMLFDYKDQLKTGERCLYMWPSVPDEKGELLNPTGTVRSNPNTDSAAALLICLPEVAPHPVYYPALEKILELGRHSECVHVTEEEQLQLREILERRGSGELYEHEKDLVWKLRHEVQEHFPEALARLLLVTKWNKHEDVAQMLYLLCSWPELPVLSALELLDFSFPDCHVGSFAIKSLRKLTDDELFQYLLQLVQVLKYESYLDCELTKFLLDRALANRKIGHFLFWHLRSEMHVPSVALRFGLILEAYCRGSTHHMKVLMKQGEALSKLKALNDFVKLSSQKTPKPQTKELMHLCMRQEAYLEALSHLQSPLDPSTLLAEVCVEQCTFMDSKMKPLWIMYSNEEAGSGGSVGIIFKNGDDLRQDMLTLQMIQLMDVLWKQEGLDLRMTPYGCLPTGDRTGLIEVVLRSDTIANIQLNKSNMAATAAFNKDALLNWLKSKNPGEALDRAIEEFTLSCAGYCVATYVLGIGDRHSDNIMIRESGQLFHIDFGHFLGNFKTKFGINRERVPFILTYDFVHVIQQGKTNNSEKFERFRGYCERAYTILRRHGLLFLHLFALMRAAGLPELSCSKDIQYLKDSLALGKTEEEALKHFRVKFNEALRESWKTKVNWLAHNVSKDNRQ
PIK3CA (human), sequence (P42336 whole entry, looked up): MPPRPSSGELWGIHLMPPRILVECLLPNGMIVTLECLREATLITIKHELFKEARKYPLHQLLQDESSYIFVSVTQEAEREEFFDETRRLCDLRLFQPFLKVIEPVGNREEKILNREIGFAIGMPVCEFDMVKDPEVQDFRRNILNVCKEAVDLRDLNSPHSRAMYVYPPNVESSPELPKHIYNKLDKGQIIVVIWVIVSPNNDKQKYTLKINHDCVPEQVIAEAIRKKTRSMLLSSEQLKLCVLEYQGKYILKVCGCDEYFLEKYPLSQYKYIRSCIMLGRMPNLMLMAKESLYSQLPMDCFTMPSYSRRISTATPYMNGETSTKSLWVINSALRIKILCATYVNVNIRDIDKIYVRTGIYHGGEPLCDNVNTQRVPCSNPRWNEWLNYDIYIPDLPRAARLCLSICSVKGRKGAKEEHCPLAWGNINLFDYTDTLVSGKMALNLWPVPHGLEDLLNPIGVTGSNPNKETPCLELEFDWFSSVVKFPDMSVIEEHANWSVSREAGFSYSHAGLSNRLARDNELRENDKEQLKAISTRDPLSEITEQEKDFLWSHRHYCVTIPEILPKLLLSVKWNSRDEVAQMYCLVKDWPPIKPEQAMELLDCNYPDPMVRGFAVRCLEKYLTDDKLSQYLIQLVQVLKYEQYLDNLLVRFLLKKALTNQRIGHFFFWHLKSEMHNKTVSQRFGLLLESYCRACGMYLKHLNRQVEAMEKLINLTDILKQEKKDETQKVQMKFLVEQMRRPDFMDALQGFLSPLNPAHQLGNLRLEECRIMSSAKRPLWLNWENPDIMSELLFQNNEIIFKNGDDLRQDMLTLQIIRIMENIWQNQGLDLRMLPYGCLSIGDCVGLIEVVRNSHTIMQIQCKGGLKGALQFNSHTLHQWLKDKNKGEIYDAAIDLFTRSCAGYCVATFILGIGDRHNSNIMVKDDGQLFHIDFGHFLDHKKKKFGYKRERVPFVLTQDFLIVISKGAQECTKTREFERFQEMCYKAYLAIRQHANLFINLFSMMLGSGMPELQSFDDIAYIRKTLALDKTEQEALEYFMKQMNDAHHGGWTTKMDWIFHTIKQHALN
PIK3CB (Human), sequence (P42338 whole entry, looked up): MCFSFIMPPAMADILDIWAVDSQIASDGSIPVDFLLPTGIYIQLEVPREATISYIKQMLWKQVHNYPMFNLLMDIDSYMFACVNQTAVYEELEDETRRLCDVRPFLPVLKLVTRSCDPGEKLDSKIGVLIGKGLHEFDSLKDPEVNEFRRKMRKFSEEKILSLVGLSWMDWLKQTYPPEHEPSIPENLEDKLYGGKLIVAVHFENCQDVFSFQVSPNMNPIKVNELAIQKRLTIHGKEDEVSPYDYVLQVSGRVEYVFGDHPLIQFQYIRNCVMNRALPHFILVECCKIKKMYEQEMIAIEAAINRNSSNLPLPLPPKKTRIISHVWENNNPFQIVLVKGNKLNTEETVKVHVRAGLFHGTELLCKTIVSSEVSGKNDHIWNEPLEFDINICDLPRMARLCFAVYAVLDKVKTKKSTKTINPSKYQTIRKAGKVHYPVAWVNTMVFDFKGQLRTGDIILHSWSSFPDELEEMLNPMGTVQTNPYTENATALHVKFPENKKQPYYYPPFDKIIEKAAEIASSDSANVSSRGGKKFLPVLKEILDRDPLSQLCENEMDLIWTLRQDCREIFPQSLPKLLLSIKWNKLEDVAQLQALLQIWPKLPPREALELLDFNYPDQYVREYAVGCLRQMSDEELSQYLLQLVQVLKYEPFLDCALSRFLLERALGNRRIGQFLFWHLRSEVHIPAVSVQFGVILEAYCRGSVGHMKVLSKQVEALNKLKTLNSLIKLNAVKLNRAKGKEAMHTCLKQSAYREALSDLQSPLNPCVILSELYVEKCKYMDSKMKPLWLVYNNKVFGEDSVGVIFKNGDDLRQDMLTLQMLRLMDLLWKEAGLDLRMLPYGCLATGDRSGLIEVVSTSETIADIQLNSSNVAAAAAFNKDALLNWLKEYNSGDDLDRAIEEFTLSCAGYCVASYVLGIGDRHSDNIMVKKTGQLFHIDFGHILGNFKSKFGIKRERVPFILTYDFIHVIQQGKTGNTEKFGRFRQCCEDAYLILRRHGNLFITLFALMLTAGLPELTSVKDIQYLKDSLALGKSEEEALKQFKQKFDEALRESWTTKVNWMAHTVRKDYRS

IC50 (PIK3CD (Human)) [µM] | IC50 (PIK3CA (human)) [µM] | IC50 (PIK3CB (Human)) [µM] | IC50 (PIK3CG (human)) [µM] | Compound
> 10 |  |  |  | C[C@H]1COCCN1c1nc(-c2ccc(NC(=O)NCCCO)cc2)nc2c1CN(C)C2
> 10 |  |  |  | COCCCNC(=O)Nc1ccc(-c2nc3c(c(N4CCOC[C@@H]4C)n2)CN(C)C3)cc1
0.1 to 1 | 0.1 to 1 | 0.1 to 1 |  | C[C@H]1COCCN1c1nc(-c2ccc(NC(=O)NCCN(C)C)cc2)nc2c1CN(C)C2

Continued, molecule first:

Compound | IC50 (PIK3CD (Human)) [µM] | IC50 (PIK3CA (human)) [µM] | IC50 (PIK3CB (Human)) [µM] | IC50 (PIK3CG (human)) [µM]
C[C@H]1COCCN1c1nc(-c2ccc(NC(=O)NC3CCC3)cc2)nc2c1CN(C)C2 | > 10 |  |  | 
COC(=O)N1Cc2nc(-c3ccc(NC(=O)NCCF)cc3F)nc(N3CCOCC3)c2C1 | > 10 | > 10 | > 10 | > 10
